Results on 24 compounds are retold here after US20240109917A1 (ACTELION PHARMACEUTICALS LTD, priority 2020, published 2024).

A word on the IC50: it is the concentration that gives 50% inhibition.

Experiment [1] concerns the target Tb-labeled inactive PDGFRβ (Homo sapiens (Human), UniProt P09619). Briefly: PDGFRβ LanthaScreen Assay. The class given is binding. Particulars: read-out: PDGFR Lantha IC50. Background: TR-FRET usually uses a lanthanide donor and a delayed reading to cut background.
For experiment [2], the target named is PDGFRβ (Rattus norvegicus (Rat), UniProt Q05030). Kind of experiment: PDGFRβ Cellular Assay (PDGFRb P-Y751 HTRF in A10 cells stimulated with PDGF-BB). The class given is cell-based. Put shortly:
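Rat A10 cells, plated overnight, were treated with compound for 3 hours, then stimulated with PDGF-BB (working stock 100 ng/mL in 10% FBS medium). After lysis, PDGFRβ P-Y751 was detected by HTRF.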

Read-outs that look alike come from different tables or passages of the source.

Chain of PDGFRβ (Q05030 32-1097): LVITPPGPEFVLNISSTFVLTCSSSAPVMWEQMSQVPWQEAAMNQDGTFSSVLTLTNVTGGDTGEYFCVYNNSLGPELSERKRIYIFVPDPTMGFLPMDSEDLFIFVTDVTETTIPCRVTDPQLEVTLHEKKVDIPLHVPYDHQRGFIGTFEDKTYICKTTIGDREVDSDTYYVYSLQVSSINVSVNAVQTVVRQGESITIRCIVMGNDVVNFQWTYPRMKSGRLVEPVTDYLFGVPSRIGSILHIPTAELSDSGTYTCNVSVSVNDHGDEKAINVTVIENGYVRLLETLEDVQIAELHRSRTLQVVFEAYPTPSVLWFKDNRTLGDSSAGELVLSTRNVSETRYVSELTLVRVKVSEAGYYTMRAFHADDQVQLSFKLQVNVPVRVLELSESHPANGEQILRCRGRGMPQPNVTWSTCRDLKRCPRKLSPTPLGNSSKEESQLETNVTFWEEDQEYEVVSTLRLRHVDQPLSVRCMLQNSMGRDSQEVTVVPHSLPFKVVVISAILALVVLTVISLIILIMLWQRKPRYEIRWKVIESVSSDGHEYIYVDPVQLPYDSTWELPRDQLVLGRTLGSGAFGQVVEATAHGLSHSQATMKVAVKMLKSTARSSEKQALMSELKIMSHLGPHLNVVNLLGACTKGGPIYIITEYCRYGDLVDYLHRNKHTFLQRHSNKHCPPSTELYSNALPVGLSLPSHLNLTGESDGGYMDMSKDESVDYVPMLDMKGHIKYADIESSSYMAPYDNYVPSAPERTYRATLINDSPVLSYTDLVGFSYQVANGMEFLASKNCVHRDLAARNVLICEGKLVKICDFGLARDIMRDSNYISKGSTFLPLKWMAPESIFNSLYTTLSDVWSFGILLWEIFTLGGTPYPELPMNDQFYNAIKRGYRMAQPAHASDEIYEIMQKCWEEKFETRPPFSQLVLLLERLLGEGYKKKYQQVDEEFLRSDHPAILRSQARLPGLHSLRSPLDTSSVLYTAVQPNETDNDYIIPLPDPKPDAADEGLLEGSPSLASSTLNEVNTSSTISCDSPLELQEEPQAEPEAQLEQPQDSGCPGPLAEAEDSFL
Chain of Tb-labeled inactive PDGFRβ (P09619 33-1106): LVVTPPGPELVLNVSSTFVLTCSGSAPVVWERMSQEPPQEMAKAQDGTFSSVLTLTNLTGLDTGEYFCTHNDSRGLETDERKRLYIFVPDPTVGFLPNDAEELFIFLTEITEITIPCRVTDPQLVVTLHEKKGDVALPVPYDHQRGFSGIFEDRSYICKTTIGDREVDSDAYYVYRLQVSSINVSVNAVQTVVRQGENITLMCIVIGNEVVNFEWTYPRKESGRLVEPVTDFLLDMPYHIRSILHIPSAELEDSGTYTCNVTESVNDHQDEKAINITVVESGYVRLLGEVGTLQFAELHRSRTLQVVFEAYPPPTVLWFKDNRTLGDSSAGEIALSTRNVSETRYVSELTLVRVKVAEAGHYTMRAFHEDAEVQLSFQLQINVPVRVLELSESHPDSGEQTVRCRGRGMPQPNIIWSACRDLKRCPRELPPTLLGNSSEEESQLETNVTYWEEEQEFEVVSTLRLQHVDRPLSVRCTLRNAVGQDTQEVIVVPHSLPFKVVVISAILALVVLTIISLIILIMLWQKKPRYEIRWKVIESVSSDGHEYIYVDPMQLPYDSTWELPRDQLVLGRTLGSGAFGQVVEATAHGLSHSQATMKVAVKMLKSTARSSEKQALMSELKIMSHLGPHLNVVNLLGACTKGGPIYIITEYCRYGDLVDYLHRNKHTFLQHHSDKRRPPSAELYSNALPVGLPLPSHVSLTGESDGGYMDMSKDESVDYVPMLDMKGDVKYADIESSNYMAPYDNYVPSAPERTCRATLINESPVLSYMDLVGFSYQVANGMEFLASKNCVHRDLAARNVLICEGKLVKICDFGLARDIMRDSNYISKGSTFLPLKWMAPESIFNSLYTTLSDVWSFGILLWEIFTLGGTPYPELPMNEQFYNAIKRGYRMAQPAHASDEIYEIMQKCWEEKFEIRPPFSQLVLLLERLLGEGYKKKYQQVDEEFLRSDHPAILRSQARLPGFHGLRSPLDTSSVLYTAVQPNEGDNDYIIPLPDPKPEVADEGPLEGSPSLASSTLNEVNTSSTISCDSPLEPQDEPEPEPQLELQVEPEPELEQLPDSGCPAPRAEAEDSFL

For `Cc1ncc(C(=O)NCCN2CCC(F)(F)C2)cc1NC(=O)c1cnn2cc(-c3cnn(C)c3)sc12` [Example 120, N-(5-((2-(3,3-difluoropyrrolidin-1-yl)ethyl)carbamoyl)-2-methylpyridin-3-yl)-2-(1-methyl-1H-pyrazol-4-yl)pyrazolo[5,1-b]thiazole-7-carboxamide], the IC50 in experiment [1] was found to be 0.0045 µM; in experiment [2] (read-out: PDGFR Cellular IC50) it was 0.0093 µM.
Consider `Cc1ncc(C(=O)NCCN2CCCOCC2)cc1NC(=O)c1cnn2cc(-c3cnn(C)c3)sc12` [Example 121, N-(5-((2-(1,4-oxazepan-4-yl)ethyl)carbamoyl)-2-methylpyridin-3-yl)-2-(1-methyl-1H-pyrazol-4-yl)pyrazolo[5,1-b]thiazole-7-carboxamide], for which the IC50 in experiment [1] turned out to be 0.0131 µM; in experiment [2] (read-out: PDGFR Cellular IC50), 0.0804 µM.
With `Cc1ncc(C(=O)NCCN2C3CCC2COC3)cc1NC(=O)c1cnn2cc(-c3cnn(C)c3)sc12` [Example 122, N-(5-((2-(3-oxa-8-azabicyclo[3.2.1]octan-8-yl)ethyl)carbamoyl)-2-methylpyridin-3-yl)-2-(1-methyl-1H-pyrazol-4-yl)pyrazolo[5,1-b]thiazole-7-carboxamide], the IC50 was determined as 0.0028 µM in experiment [1] and 0.0194 µM in experiment [2] (read-out: PDGFR Cellular IC50).
Consider `Cc1ncc(C(=O)NCCN2CCCC(F)(F)C2)cc1NC(=O)c1cnn2cc(-c3cnn(C)c3)sc12` [Example 123, N-(5-((2-(3,3-difluoropiperidin-1-yl)ethyl)carbamoyl)-2-methylpyridin-3-yl)-2-(1-methyl-1H-pyrazol-4-yl)pyrazolo[5,1-b]thiazole-7-carboxamide], for which the half-inhibitory concentration (IC50) was determined as 0.0027 µM in experiment [1] and 0.0078 µM in experiment [2] (read-out: PDGFR Cellular IC50).
The matching figures for `Cc1ncc(C(=O)NCCN2CC3(CCC3)C2)cc1NC(=O)c1cnn2cc(-c3cnn(C)c3)sc12` [Example 124, N-(5-((2-(2-azaspiro[3.3]heptan-2-yl)ethyl)carbamoyl)-2-methylpyridin-3-yl)-2-(1-methyl-1H-pyrazol-4-yl)pyrazolo[5,1-b]thiazole-7-carboxamide]: 0.0196 µM and 0.134 µM.
In the case of `Cc1ncc(C(=O)NCCN2CC(F)(F)C2)cc1NC(=O)c1cnn2cc(-c3cnn(C)c3)sc12` [Example 125, N-(5-((2-(3,3-difluoroazetidin-1-yl)ethyl)carbamoyl)-2-methylpyridin-3-yl)-2-(1-methyl-1H-pyrazol-4-yl)pyrazolo[5,1-b]thiazole-7-carboxamide], the IC50 in experiment [1] is 0.0053 µM; in experiment [2] (read-out: PDGFR Cellular IC50), 0.0476 µM.
With `Cc1ncc(C(=O)NCCN2CC(C)(C)C2)cc1NC(=O)c1cnn2cc(-c3cnn(C)c3)sc12` [Example 126, N-(5-((2-(3,3-dimethylazetidin-1-yl)ethyl)carbamoyl)-2-methylpyridin-3-yl)-2-(1-methyl-1H-pyrazol-4-yl)pyrazolo[5,1-b]thiazole-7-carboxamide], the IC50 in experiment [1] was 0.0103 µM; in experiment [2] (read-out: PDGFR Cellular IC50) it was 0.0801 µM.
Take `COCCN(CCNC(=O)c1cnc(C)c(NC(=O)c2cnn3cc(-c4cnn(C)c4)sc23)c1)C(C)C` [Example 127, N-(5-((2-(isopropyl(2-methoxyethyl)amino)ethyl)carbamoyl)-2-methylpyridin-3-yl)-2-(1-methyl-1H-pyrazol-4-yl)pyrazolo[5,1-b]thiazole-7-carboxamide]: the IC50 in experiment [1] turned out to be 0.006 µM; in experiment [2] (PDGFR Cellular IC50) it was 0.0162 µM.
Turning to `COCCN(CCNC(=O)c1cnc(C)c(NC(=O)c2cnn3cc(-c4cnn(C)c4)sc23)c1)CCOC` [Example 128, N-(5-((2-(bis(2-methoxyethyl)amino)ethyl)carbamoyl)-2-methylpyridin-3-yl)-2-(1-methyl-1H-pyrazol-4-yl)pyrazolo[5,1-b]thiazole-7-carboxamide], the IC50 is 0.0183 µM in experiment [1] and 0.0468 µM in experiment [2] (read-out: PDGFR Cellular IC50).
Regarding `CC(=O)N1CCN(CCNC(=O)c2cnc(C)c(NC(=O)c3cnn4cc(-c5cnn(C)c5)sc34)c2)CC1` [Example 129, N-(5-((2-(4-acetylpiperazin-1-yl)ethyl)carbamoyl)-2-methylpyridin-3-yl)-2-(1-methyl-1H-pyrazol-4-yl)pyrazolo[5,1-b]thiazole-7-carboxamide], the IC50 in experiment [1] was 0.0871 µM; in experiment [2] (read-out: PDGFR Cellular IC50), more than 3 µM.
For the compound `Cc1ncc(C(=O)NCCN2CCCC2(C)C)cc1NC(=O)c1cnn2cc(-c3cncnc3)sc12` [Example 139, N-(5-((2-(2,2-dimethylpyrrolidin-1-yl)ethyl)carbamoyl)-2-methylpyridin-3-yl)-2-(pyrimidin-5-yl)pyrazolo[5,1-b]thiazole-7-carboxamide], the IC50 in experiment [1] amounted to 0.182 µM; in experiment [2] (read-out: PDGFR Cellular IC50), 0.164 µM.
For `Cc1ncc(C(=O)NCCN2CCCC2(C)C)cc1NC(=O)c1cnn2cc(-c3cnn(CCO)c3)sc12` [Example 140, N-(5-((2-(2,2-dimethylpyrrolidin-1-yl)ethyl)carbamoyl)-2-methylpyridin-3-yl)-2-(1-(2-hydroxyethyl)-1H-pyrazol-4-yl)pyrazolo[5,1-b]thiazole-7-carboxamide], the IC50 turned out to be 0.0049 µM in experiment [1] and 0.309 µM in experiment [2] (read-out: PDGFR Cellular IC50).
`Cc1ncc(C(=O)NCCN2CCCC2(C)C)cc1NC(=O)c1cnn2cc(-c3ccc(=O)[nH]n3)sc12` [Example 141, N-(5-((2-(2,2-dimethylpyrrolidin-1-yl)ethyl)carbamoyl)-2-methylpyridin-3-yl)-2-(6-oxo-1,6-dihydropyridazin-3-yl)pyrazolo[5,1-b]thiazole-7-carboxamide]: the 50% inhibitory concentration (IC50) in experiment [1] was 0.0186 µM; in experiment [2] (read-out: PDGFR Cellular IC50) it was more than 3 µM.
On to `COCCn1cc(-c2cn3ncc(C(=O)Nc4cc(C(=O)NCCN5CC6CCC5CC6)cnc4C)c3s2)cn1` [Example 142, N-(5-((2-(2-azabicyclo[2.2.2]octan-2-yl)ethyl)carbamoyl)-2-methylpyridin-3-yl)-2-(1-(2-methoxyethyl)-1H-pyrazol-4-yl)pyrazolo[5,1-b]thiazole-7-carboxamide], for which the IC50 in experiment [1] was found to be 0.0042 µM; in experiment [2] (read-out: PDGFR Cellular IC50), 0.0717 µM.
The matching figures for `Cc1ncc(C(=O)NCCN2CC3CCC2CC3)cc1NC(=O)c1cnn2cc(-c3cnn(CS(C)(=O)=O)c3)sc12` [Example 143, N-(5-((2-(2-azabicyclo[2.2.2]octan-2-yl)ethyl)carbamoyl)-2-methylpyridin-3-yl)-2-(1-((methylsulfonyl)methyl)-1H-pyrazol-4-yl)pyrazolo[5,1-b]thiazole-7-carboxamide]: 0.0053 µM and 0.998 µM.
`Cc1ncc(C(=O)NCCN2CC3CCC2CC3)cc1NC(=O)c1cnn2cc(-c3cnn(C4COC4)c3)sc12` [Example 144, N-(5-((2-(2-azabicyclo[2.2.2]octan-2-yl)ethyl)carbamoyl)-2-methylpyridin-3-yl)-2-(1-(oxetan-3-yl)-1H-pyrazol-4-yl)pyrazolo[5,1-b]thiazole-7-carboxamide]: the concentration for half-maximal inhibition (IC50) is 0.0036 µM in experiment [1] and 0.106 µM in experiment [2] (read-out: PDGFR Cellular IC50).
Consider `Cc1ncc(C(=O)NCCN2CC3CCC2CC3)cc1NC(=O)c1cnn2cc(-c3ccc4oc(=O)[nH]c4c3)sc12` [Example 145, N-(5-((2-(2-azabicyclo[2.2.2]octan-2-yl)ethyl)carbamoyl)-2-methylpyridin-3-yl)-2-(2-oxo-2,3-dihydrobenzo[d]oxazol-5-yl)pyrazolo[5,1-b]thiazole-7-carboxamide], for which the IC50 turned out to be 0.0014 µM in experiment [1] and 0.407 µM in experiment [2] (read-out: PDGFR Cellular IC50).
With `CC(=O)Nc1ccnc(-c2cn3ncc(C(=O)Nc4cc(C(=O)NCCN5CC6CCC5CC6)cnc4C)c3s2)c1` [Example 146, N-(5-((2-(2-azabicyclo[2.2.2]octan-2-yl)ethyl)carbamoyl)-2-methylpyridin-3-yl)-2-(4-acetamidopyridin-2-yl)pyrazolo[5,1-b]thiazole-7-carboxamide], the IC50 in experiment [1] was 0.0043 µM; in experiment [2] (read-out: PDGFR Cellular IC50), 0.858 µM.
Consider `CC(=O)Nc1cncc(-c2cn3ncc(C(=O)Nc4cc(C(=O)NCCN5CC6CCC5CC6)cnc4C)c3s2)c1` [Example 147, N-(5-((2-(2-azabicyclo[2.2.2]octan-2-yl)ethyl)carbamoyl)-2-methylpyridin-3-yl)-2-(5-acetamidopyridin-3-yl)pyrazolo[5,1-b]thiazole-7-carboxamide], for which the figures for the IC50 in experiment [1] and in experiment [2] (read-out: PDGFR Cellular IC50) were 0.0069 µM and more than 2 µM, respectively.
The matching figures for `Cc1ncc(C(=O)NCCN2CC3CCC2CC3)cc1NC(=O)c1cnn2cc(-c3ccncc3)sc12` [Example 148, N-(5-((2-(2-azabicyclo[2.2.2]octan-2-yl)ethyl)carbamoyl)-2-methylpyridin-3-yl)-2-(pyridin-4-yl)pyrazolo[5,1-b]thiazole-7-carboxamide]: 0.0042 µM and 0.0289 µM.
Turning to `Cc1ncc(C(=O)NCCN2CC3CCC2CC3)cc1NC(=O)c1cnn2cc(-c3cccnc3)sc12` [Example 149, N-(5-((2-(2-azabicyclo[2.2.2]octan-2-yl)ethyl)carbamoyl)-2-methylpyridin-3-yl)-2-(pyridin-3-yl)pyrazolo[5,1-b]thiazole-7-carboxamide], the results for the IC50 in experiment [1] and in experiment [2] (read-out: PDGFR Cellular IC50) were 0.005 µM and 0.0362 µM, respectively.
For the compound `Cc1ncc(C(=O)NCCN2CC3CCC2CC3)cc1NC(=O)c1cnn2cc(-c3cnn(CC(N)=O)c3)sc12` [Example 150, N-(5-((2-(2-azabicyclo[2.2.2]octan-2-yl)ethyl)carbamoyl)-2-methylpyridin-3-yl)-2-(1-(2-amino-2-oxoethyl)-1H-pyrazol-4-yl)pyrazolo[5,1-b]thiazole-7-carboxamide], the results for the concentration for half-maximal inhibition (IC50) in experiment [1] and in experiment [2] (read-out: PDGFR Cellular IC50) were 0.0055 µM and more than 2 µM, respectively.
The matching figures for `Cc1ncc(C(=O)NCCN2CC3CCC2CC3)cc1NC(=O)c1cnn2cc(-c3cnn(CC#N)c3)sc12` [Example 151, N-(5-((2-(2-azabicyclo[2.2.2]octan-2-yl)ethyl)carbamoyl)-2-methylpyridin-3-yl)-2-(1-(cyanomethyl)-1H-pyrazol-4-yl)pyrazolo[5,1-b]thiazole-7-carboxamide]: 0.0028 µM and 0.24 µM.
The matching figures for `Cc1ncc(C(=O)NCCN2CC(F)(F)C2)cc1NC(=O)c1cnn2cc(-c3ccncc3)sc12` [Example 152, N-(5-((2-(3,3-difluoroazetidin-1-yl)ethyl)carbamoyl)-2-methylpyridin-3-yl)-2-(pyridin-4-yl)pyrazolo[5,1-b]thiazole-7-carboxamide]: 0.0124 µM and 0.0662 µM.
